Measured values reported in patent US12172974B2 (Biohaven Pharmaceutical Holding Company Ltd., priority 2012, dated 2024).
Entries after “also recorded” stand apart in the source; their conditions may differ.

Assays:
[1] = Metabolic stability in pooled human liver microsomes; format: in vitro ADME; conditions: human liver microsomes 0.5 mg/mL, 1 uM, 37° C., NADPH
Procedure: (§1) Metabolic Stability: In vitro metabolic stability was determined in pooled mouse or human liver microsomes (BD Gentest) at a protein concentration of 0.5 mg/mL in reaction buffer (100 mM KH2PO4, pH 7.4 and 12 mM MgCl2). Each drug candidate was added to a final concentration of 1 uM. This mixture was pre-warmed to 37° C. for 10 minutes prior to starting the reaction with the addition of β-Nicotinamide adenine dinucleotide 2′-phosphate reduced (NADPH) to a final concentration of 1 mM. A parallel incubation lacking NADPH served as the control. After incubation for 30 min at 37° C., the reactions were quenched by the addition of acetonitrile containing 0.1% formic acid and internal standard, vortex mixed for 2 minutes and centrifuged at 4000 rpm for 10 minutes to pellet the precipitated protein. The resulting supernatant containing the drug candidate and its potential metabolites was diluted 5-fold with water containing 0.1% formic acid and submitted to LC-MS/MS analysis. […]
(§2) LC-MS/MS Analysis: An aliquot from each incubation was analyzed by LC-MS/MS with SRM detection in the positive ionization mode using an ABSciex API 5500 QTrap Mass Spectrometer interfaced via the ABSciex Turbo V IonSpray source (ESI) to an Eksigent ExpressHT LC system. […] A fast gradient, from 15 to 85% organic in 2.5 minutes, with run time of 5.0 minutes, and flow rate of 50 ul/min was utilized. Peak areas were integrated using MultiQuant v2.0 software from ABSciex.

[2] = Plasma stability in fresh human plasma; format: in vitro ADME; conditions: 1 uM, 37° C.
Procedure: (§3) Plasma Stability: Assessment of plasma stability was carried out by individual incubations of drug candidates in fresh mouse or human control plasma at a concentration of 1 uM for 1 hour at 37° C. After which, the samples were de-proteinized by addition of 2 volumes of acetonitrile containing 0.1% formic acid and internal standard, vortex mixed for 2 minutes and centrifuged at 4000 rpm for 10 minutes to pellet precipitated protein. The resulting supernatant containing the drug candidates was diluted 5-fold with water containing 0.1% formic acid and submitted to LC-MS/MS analysis. All determinations were done in triplicate. […]
as §2

[3] = Stability in Simulated Intestinal Fluid (SIF); format: in vitro ADME; conditions: 37° C., 0.01 mg/mL
Procedure: (§4) Stability in Simulated Gastric Fluid (SGF) and Simulated Intestinal Fluid (SIF). Procedure from Baudy et. al. (J. Med. Chem. 2009, 52, 771-778) used. The physiological stability of prodrugs was determined by examining the stability of the compound in SGF, and SIF at 37° C. The compounds were prepared in a 9:1 mixture of the appropriate test component (SGF, SIF) and acetonitrile to a final concentration of 0.01 mg/mL. The samples were thoroughly mixed and maintained at 37° C. Each sample was injected consecutively onto an Agilent 1100 system (Luna C18, 3 μm, 50 mm×3 mm; 1 mL/min; mobile phase of 0.1% trifluoroacetic acid in water/0.1% trifluoroacetic acid in acetonitrile) after a 3 h period. The percent remaining of prodrug was calculated by comparing the area of prodrug compound versus riluzole generated. The identities of the parent compounds and conversion products were confirmed by LC/MS.

[4] = Plasma stability in fresh mouse plasma; format: in vitro ADME; conditions: 1 uM, 37° C.
Procedure: as §3, §2

[5] = Stability in Simulated Gastric Fluid (SGF); format: in vitro ADME; conditions: 37° C., 0.01 mg/mL
Procedure: as §4

[6] = Metabolic stability in pooled mouse liver microsomes; format: in vitro ADME; conditions: mouse liver microsomes 0.5 mg/mL, 1 uM, 37° C., NADPH
Procedure: as §1, §2

[7] = tested on: Stage III and IV melanoma; conditions: 14 days of treatment; cited from earlier work

Row | SMILES | Metabolic Stability human (30 minutes): percent of prodrug metabolized to riluzole [1] | Plasma Stability Human (1 hour): percent of prodrug metabolized to riluzole [2] | SIF (3 hours): percent of prodrug metabolized to riluzole [3] | Plasma Stability mouse (1 hour): percent of prodrug metabolized to riluzole [4] | SGF (3 hours): percent of prodrug metabolized to riluzole [5] | Metabolic Stability mouse (30 minutes): percent of prodrug metabolized to riluzole [6] | patients with clinical or radiologic evidence of tumor response [7]
1 | CN(C)CCCOC(=O)Nc1nc2ccc(OC(F)(F)F)cc2s1 [Cpd 19, (6-Trifluoromethoxy-benzothiazol-2-yl)-carbamic acid 3-dimethylamino-propyl ester] | 0% | 0% | 0% | 0% | 0% | 71% | –
2 | O=C(O)CCC(=O)Nc1nc2ccc(OC(F)(F)F)cc2s1 [Cpd 20, N-(6-Trifluoromethoxy-benzothiazol-2-yl)-succinamic acid] | 0% | 16% | 0% | 0% | 0% | 70% | –
3 | COC(=O)CCC(=O)Nc1nc2ccc(OC(F)(F)F)cc2s1 [Cpd 21, N-(6-Trifluoromethoxy-benzothiazol-2-yl)-succinamic acid methyl ester] | 34% | 25% | 0% | 99% | 3% | 77% | –
4 | CC(C)(C)OC(=O)CCC(=O)Nc1nc2ccc(OC(F)(F)F)cc2s1 [Cpd 22, N-(6-Trifluoromethoxy-benzothiazol-2-yl)-succinamic acid tert-butyl ester] | 21% | 0% | 0% | 0% | 0% | 0% | –
5 | O=C(CCC(=O)Nc1nc2ccc(OC(F)(F)F)cc2s1)NCc1cccnc1 [Cpd 23, N-Pyridin-3-ylmethyl-N′-(6-trifluoromethoxy-benzothiazol-2-yl)-succinamide] | 4% | 0% | 10% | 26% | 0% | 0% | –
6 | CNCCCCC(=O)Nc1nc2ccc(OC(F)(F)F)cc2s1 [Cpd 25, 5-Methylamino-pentanoic acid (6-trifluoromethoxy-benzothiazol-2-yl)-amide] | 0% | 0% | 0% | 0% | 0% | 78% | –
7 | NCCCCC(=O)Nc1nc2ccc(OC(F)(F)F)cc2s1 [Cpd 26, 5-Amino-pentanoic acid (6-trifluoromethoxy-benzothiazol-2-yl)-amide] | 19% | 5% | 0% | 0% | 0% | 66% | –
8 | O=C(Cc1ccccc1[N+](=O)[O-])Nc1nc2ccc(OC(F)(F)F)cc2s1 [Cpd 27, 2-(2-Nitro-phenyl)-N-(6-trifluoromethoxy-benzothiazol-2-yl)-acetamide] | 22% | 13% | 0% | 0% | 0% | 59% | –
9 | Nc1ccc(C(=O)Nc2nc3ccc(OC(F)(F)F)cc3s2)cc1 [Cpd 28, 4-Amino-N-(6-trifluoromethoxy-benzothiazol-2-yl)-benzamide] | 80% | 0% | 0% | 0% | 0% | 24% | –
10 | Nc1nc2ccc(OC(F)(F)F)cc2s1 [riluzole, 6-(trifluoromethoxy)-1,3-benzothiazol-2-amine] | – | – | – | – | – | – | four of twelve; also recorded: four of 12
